This passage reports IC50 and inhibition results from patent US7217722B2 (Kirin Beer Kabushiki Kaisha, priority 2000, dated 2007).

Rho kinase (fused protein of bovine Rho kinase catalyst region and glutathione S-transferase), sequence (Q28021 92-354 limits assumed): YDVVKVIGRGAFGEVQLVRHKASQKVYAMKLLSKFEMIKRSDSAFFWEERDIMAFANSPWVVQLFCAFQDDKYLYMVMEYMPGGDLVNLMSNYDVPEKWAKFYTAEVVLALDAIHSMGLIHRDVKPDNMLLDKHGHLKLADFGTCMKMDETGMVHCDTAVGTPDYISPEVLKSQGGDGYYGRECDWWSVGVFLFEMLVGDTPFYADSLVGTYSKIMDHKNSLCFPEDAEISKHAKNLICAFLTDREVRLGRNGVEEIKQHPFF

The first test addresses Rho kinase (fused protein of bovine Rho kinase catalyst region and glutathione S-transferase) (Bos taurus, UniProt Q28021). Put plainly: Rho kinase inhibitory activity (phosphorylation of S6 231–239 substrate, γ32P-ATP). The class given is biochemical. The conditions noted are these: concentration inhibiting substrate phosphorylation by 50%. As to the method: This permits the substrate to be labeled with the radioisotope.
Thereafter, the substrate was adsorbed to a filter paper. ATP was washed away with a phosphoric acid solution, and the amount of the phosphorylated substrate was then measured with a liquid scintillation counter.
In general, IC50 refers to the point on the concentration scale where inhibition reaches its midpoint. A lower IC50 goes with inhibition by little substance. For the compound `O=C(CSc1c(Cl)cccc1Cl)Nc1ccncc1` [Example 17, N1-(4-Pyridyl)-2-[(2,6-dichlorophenyl)-sulfanyl]acetamide], half-maximal inhibition (IC50) required 9.6 µM.

Regarding `CCc1ccc(CN2CCC(Nc3ccc4[nH]ncc4c3)CC2)cc1` [Example 120, N-[1-(4-Ethylbenzyl)-4-piperidyl]-N-(1H-5-indazolyl)amine], it took 0.241 µM to reach half-maximal inhibition (IC50).

The compound `c1ccc(CNCCNc2ccc3[nH]ncc3c2)cc1` [Example 174, N1-Benzyl-N2-(1H-5-indazolyl)-1,2-ethanediamine] had an IC50 of 0.163 µM.

In the case of `O=C(Nc1ccncc1)Nc1c(F)cccc1Cl` [Example 18, N-(2-Chloro-6-fluorophenyl)-N′-(4-pyridyl)urea], the IC50 came out at 2.87 µM.

Regarding `O=C(NCc1cccc([N+](=O)[O-])c1)Nc1ccncc1` [Example 111, N-(3-Nitrobenzyl)-N′-(4-pyridyl)urea], the IC50 was found to be 1.77 µM. This IC50 is about 1.6-fold lower than that of the compound before.

For `O=C(CC1CCCCC1)Nc1ccncc1` [Example 31, N1-(4-Pyridyl)-2-cyclohexylacetamide], inhibition was half-maximal at 5.29 µM (IC50).

In the case of `O=C(Cc1ccc2c(c1)OCO2)Nc1ccc2[nH]ncc2c1` [Example 45, N1-(1H-5-Indazolyl)-2-(1,3-benzodioxol-5-yl)acetamide], the IC50 stood at 0.153 µM.

In the case of `Brc1ccc(CN2CCCC(Nc3ccc4[nH]ncc4c3)C2)cc1` (centres unmarked) [Example 165, N-[1-(4-Bromobenzyl)-3-piperidyl]-N-(1H-5-indazolyl)amine], half-maximal inhibition (IC50) was put at 0.011 µM.

Compound `O=C(NCc1c(Cl)cccc1Cl)Nc1ccc2c(c1)C(=O)NC2=O` [Example 68, N1-(2,6-Dichlorobenzyl)-N′-(1,3-dioxo-2,3-dihydro-1H-5-isoindolyl)urea] yielded an IC50 of 0.11 µM.

For `COC(=O)c1cccc(CN2CCC(Nc3ccc4[nH]ncc4c3)CC2)c1` [Example 147, Methyl 3-{[4-(1H-5-indazolylamino)piperidino]methyl}benzoate], the IC50 is 0.462 µM.

As to `O=C(Nc1cccc([N+](=O)[O-])c1)Nc1ccc2c(c1)C(=O)NC2=O` [Example 78, N-(1,3-Dioxo-2,3-dihydro-1H-5-isoindolyl)-N′-(3-nitrophenyl)urea], the IC50 was determined as 10.4 µM.

Compound `O=C(Nc1ccncc1)Nc1c[nH]c2ccccc12` [Example 66, N-(1H-3-Indolyl)-N′-(4-pyridyl)urea] registered a half-inhibitory concentration (IC50) of 6.57 µM.

Compound `O=C(COc1c(Cl)cc(F)cc1Cl)Nc1ccncc1` [Example 24, N1-(4-Pyridyl)-2-(2,6-dichloro-4-fluorophenoxy)acetamide] displayed an IC50 of 0.48 µM.

`c1ccc(NC2CCC(Nc3ccc4[nH]ncc4c3)CC2)cc1` (centres unmarked) [Example 172, N1-(1H-5-Indazolyl)-N4-phenyl-1,4-cyclohexanediamine] gave an IC50 of 0.265 µM.

With `O=[N+]([O-])c1cccc(CN2CCC(Nc3ccc4[nH]ncc4c3)CC2)c1` [Example 140, N-(1H-5-Indazolyl)-N-[1-(3-nitrobenzyl)-4-piperidyl]amine], the IC50 was found to be 0.465 µM.

Compound `O=C(COc1c(Cl)cc(F)cc1Cl)Nc1ccc2[nH]ncc2c1` [Example 15, N1-(1H-5-Indazolyl)-2-(2,6-dichloro-4-fluorophenoxy)acetamide] displayed an IC50 of 0.46 µM.

`O=C(Cc1ccc([N+](=O)[O-])cc1[N+](=O)[O-])Nc1ccc2[nH]ncc2c1` [Example 39, N1-(1H-5-Indazolyl)-2-(2,4-dinitrophenyl)acetamide]: inhibition was half-maximal at 0.122 µM (IC50).

Compound `Cc1ccc(CN2CCC(Nc3ccc4[nH]ncc4c3)CC2)cc1C` [Example 115, N-[1-(3,4-Dimethylbenzyl)-4-piperidyl]-N-(1H-5-indazolyl)amine] gave an IC50 of 0.372 µM.

Turning to `O=C(NCc1c(F)cccc1C(F)(F)F)Nc1ccc2c(c1)C(=O)NC2=O` [Example 91, N-(1,3-Dioxo-2,3-dihydro-1H-5-isoindolyl)-N′-[2-fluoro-6-(trifluoromethyl)benzyl]urea], the IC50 worked out at 0.099 µM.

Consider `c1ccc(CNC2CCC(Nc3ccc4[nH]ncc4c3)CC2)cc1` (mixture of isomers) [Example 171, N1-Benzyl-N4-(1H-5-indazolyl)-1,4-cyclohexanediamine], for which the IC50 turned out to be 0.09 µM.

Compound `O=C(NCc1ccccc1Cl)Nc1ccc2c(c1)C(=O)NC2=O` [Example 82, N-(2-Chlorobenzyl)-N′-(1,3-dioxo-2,3-dihydro-1H-5-isoindolyl)urea] registered a half-maximal inhibitory concentration (IC50) of 0.29 µM. This IC50 is about 3.2-fold higher than that of the compound before.

Compound `Clc1ccc(CN2CCCC(Nc3ccc4[nH]ncc4c3)C2)cc1` (centres unmarked) [Example 163, N-[1-(4-Chlorobenzyl)-3-piperidyl]-N-(1H-5-indazolyl)amine] had a 50% inhibitory concentration (IC50) of 0.011 µM.

`O=C(NCC1CCCCC1)Nc1ccncc1` [Example 75, N-Cyclohexylmethyl-N′-(4-pyridyl)urea] came in with a 50% inhibitory concentration (IC50) of 6.03 µM. Compared with the last compound, the IC50 is about 550-fold higher.

The compound `O=C(Nc1ccncc1)Nc1c(Cl)cc(Cl)cc1Cl` [Example 1, N-(4-Pyridyl)-N′-(2,4,6-trichlorophenyl)urea] displayed an IC50 of 0.2 µM.

`O=C(Nc1ccc2c(c1)C(=O)NC2=O)Nc1c[nH]c2ccccc12` [Example 69, N-(1,3-Dioxo-2,3-dihydro-1H-5-isoindolyl)-N′-(1H-3-indolyl)urea]: it took 2.27 µM to reach half-maximal inhibition (IC50).

For `O=C(NCC1CCCCC1)Nc1ccc2c(c1)C(=O)NC2=O` [Example 76, N-Cyclohexylmethyl-N′-(1,3-dioxo-2,3-dihydro-1H-5-isoindolyl)urea], the IC50 came to 1.69 µM. The IC50 values of the last two compounds are within 1.5-fold of each other.

`O=[N+]([O-])c1ccc(CN2CCC(Nc3ccc4[nH]ncc4c3)C2)cc1` (centres unmarked) [Example 159, N-(1H-5-Indazolyl)-N-[1-(4-nitrobenzyl)tetrahydro-1H-3-pyrrolyl]amine] gave an IC50 of 0.012 µM.

Consider `O=C(Nc1ccc2c(c1)C(=O)NC2=O)Nc1ccc2[nH]ccc2c1` [Example 70, N-(1,3-Dioxo-2,3-dihydro-1H-5-isoindolyl)-N′-(1H-5-indolyl)urea], for which the 50% inhibitory concentration (IC50) turned out to be 0.4 µM.

Compound `CCC(=O)c1cc(F)c(OCC(=O)Nc2ccncc2)c(F)c1` [Example 29, N1-(4-Pyridyl)-2-(2,6-difluoro-4-propionyl-phenoxy)acetamiden] showed a half-maximal inhibitory concentration (IC50) of 8.59 µM.

As for `Nc1ccccc1CNC(=O)Nc1ccc2c(c1)C(=O)NC2=O` [Example 87], the IC50 was determined as 0.18 µM. This IC50 is about 48-fold lower than that of the compound before.

Compound `O=C(NCc1c(F)cccc1F)Nc1ccncc1` [Example 61, N-(2,6-Difluorobenzyl)-N′-(4-pyridyl)urea] displayed an IC50 of 6.95 µM.

For the compound `CC(=O)Oc1ccc(CN2CCC(Nc3ccc4[nH]ncc4c3)CC2)cc1` [Example 149, 4-{[4-(1H-5-Indazolylamino)piperidino]methyl}phenyl acetate], the concentration for half-maximal inhibition (IC50) was 0.204 µM.

As to `O=C(NCc1c(F)cccc1C(F)(F)F)Nc1ccncc1` [Example 64, N-[2-Fluoro-6-(trifluoromethyl)benzyl]-N′-(4-pyridyl)urea], inhibition was half-maximal at 2.19 µM (IC50).

`Cc1cc(Cl)c(OCC(=O)Nc2ccncc2)c(Cl)c1` [Example 30, N1-(4-Pyridyl)-2-(2,6-dichloro-4-methylphenoxy)acetamide] registered an IC50 of 1.15 µM.

As for `O=C(NCc1ccc(Cl)cc1Cl)Nc1ccc2c(c1)C(=O)NC2=O` [Example 88, N-(2,4-Dichlorobenzyl)-N′-(1,3-dioxo-2,3-dihydro-1H-5-isoindolyl)urea], the IC50 came to 0.44 µM. This IC50 lies about 2.6-fold lower than the previous one.

For the compound `O=C(CCc1ccc2c(c1)OCO2)Nc1ccc2[nH]ncc2c1` [Example 52, N1-(1H-5-Indazolyl)-3-(1,3-benzodioxol-5-yl)propaneamide], the half-maximal inhibitory concentration (IC50) worked out at 0.23 µM.

As to `Cc1ccc(CN2CCC(Nc3ccc4[nH]ncc4c3)C2)cc1` (centres unmarked) [Example 157, N-(1H-5-Indazolyl)-N-[1-(4-methylbenzyl)tetrahydro-1H-3-pyrrolyl]amine], 0.022 µM corresponded to half-maximal inhibition (IC50).

With `Nc1cccc(CNC(=O)Nc2ccc3c(c2)C(=O)NC3=O)c1` [Example 112, N-(3-Aminobenzyl)-N′-(1,3-dioxo-2,3-dihydro-1H-5-isoindolyl)urea], the IC50 is 0.31 µM.

Turning to `O=C(NCc1ccccc1)Nc1ccc2[nH]ncc2c1` [Example 84, N-Benzyl-N′-(1H-5-indazolyl)urea], inhibition was half-maximal at 0.26 µM (IC50).

`Brc1cccc(CN2CCC(Nc3ccc4[nH]ncc4c3)CC2)c1` [Example 23] had an IC50 of 0.124 µM.

Compound `c1ccc(CCN2CCC(Nc3ccc4[nH]ncc4c3)CC2)cc1` [Example 130, N-(1H-5-Indazolyl)-N-(1-phenethyl-4-piperidyl)amine] came in with a half-inhibitory concentration (IC50) of 0.457 µM.

The subject of another test is Human-derived histiocyte lymphoma (U937/CCR2). As to the kind of experiment: Leukocyte migration inhibitory activity (MCP-1 induced migration, CHEMOTAXICELL). The conditions noted are these: Homo sapiens, U-937, 1 h, test compound 0.1 μM; U937/CCR2, MCP-1, 1 hr; read-out: Migration inhibition (%) ± SEM. Type of test: cell-based. As to the method:
Human-derived histiocyte lymphoma (U937/CCR2), in which mouse-derived CCR2 had been highly expressed, was suspended in a 0.1% BSA-containing RPMI 1640 medium, to which a test compound had been added (5×10^6/ml), and the suspension was incubated for 20 min. A chemical solution (500 μl) (0.1% BSA-containing RPMI 1640 medium DMSO 1%), to which an MCP-1 ligand (1 μM) and the test compound had been added, was added to a 24-well plate. CHEMOTAXICELL was put thereon, and 200 μl of the cell suspension was added to the top layer, followed by migration under 5% carbon dioxide at 37° C. for one hr. The number of cells, which had migrated to the lower chamber, was counted with a particle count analyzer (CDA-500, SYSMEX CORPORATION), and the percentage migration inhibition was calculated by the following equation; Migration inhibition (%)={1−(number of migrated cells in the presence of test compound/number of migrated cells in the absence of test compound)}×100
As to `COC(=O)C(c1ccc(F)c(F)c1)N1CCCC(Nc2ccc3[nH]ncc3c2)C1` (centres unmarked) [Example 294], the inhibition at 0.1 µM amounted to 87.4 ± 6.4%.

The same test, now with this note: Homo sapiens, U-937, 1 h, test compound 0.3 μM; U937/CCR2, MCP-1, 1 hr; read-out: Migration inhibition (%) ± SEM.
With `c1cc(NC2CCC(NC3CC3)CC2)c2ccncc2c1` (stereo not drawn) [262 (anti), N1-Cyclopropyl-N4-(5-isoquinolyl)-1,4-cyclohexanediamine], the inhibition at 0.3 µM is 24.4 ± 8.1%.

With `COC(=O)C(c1ccc(F)c(F)c1)N1CCCC(Nc2ccc3[nH]ncc3c2)C1` (centres unmarked) [Example 294], the inhibition at 0.3 µM came out at 98.3 ± 1.4%.

Staying with this test, now noted: Homo sapiens, U-937, 1 h, test compound 1 μM; U937/CCR2, MCP-1, 1 hr; read-out: Migration inhibition (%) ± SEM.
On to `CCCN[C@H]1CC[C@H](Nc2cccc3cnccc23)CC1` [260 (anti)], for which the inhibition at 1 µM was 77.4 ± 14.4%.

For the compound `c1cc(NC2CCC(NC3CC3)CC2)c2ccncc2c1` (stereo not drawn) [262 (anti), N1-Cyclopropyl-N4-(5-isoquinolyl)-1,4-cyclohexanediamine], the inhibition at 1 µM is 82.5 ± 6.69%.

Staying with this test, now noted: Homo sapiens, U-937, 1 h, test compound 3 μM; U937/CCR2, MCP-1, 1 hr; read-out: Migration inhibition (%) ± SEM.
For the compound `CCCNC1CCC(Nc2ccc3[nH]ncc3c2)CC1` (centres unmarked) [Example 243, N1-(1H-5-indazolyl)-N4-propyl-1,4-cyclohexanediamine], the inhibition at 3 µM came to 82.8 ± 7.1%.
